In patent US20100048950A1 (BOEHRINGER INGELHEIM INTERNATIONAL GMBH, priority 2007, published 2010):

Legend:
glucocorticoid receptor = assay: Agonist activity in one or more of the above assays (GR cell assays); assay type: cell-based; settings: in one or more of the above assays (assay not specified)
Description: Dexamethasone, a synthetic ligand to the glucocorticoid receptor (GR), induces expression of aromatase in human foreskin fibroblast cells. The activity of aromatase is measured by the conversion of testosterone to estradiol in culture media.
Human foreskin fibroblast cells (ATCC Cat. No. CRL-2429, designation CCD112SK) are plated on 96 well plates at 50,000 cells per well 5 days before use, in Iscove's Modified Dulbecco's Media (GibcoBRL Life Technologies Cat No. 12440-053) supplemented with 10% charcoal filtered FBS (Clonetech Cat No. SH30068) and Gentamycin (GibcoBRL Life Technologies Cat. No. 15710-064). On the day of the experiment, the media in the wells is replaced with fresh media. Cells are treated with test compounds to final concentrations of 10^−5 M to […], and testosterone to a final concentration of 300 ng/mL. Each well has a total volume of 100 μL. Samples are made in duplicates. Control wells include: (a) wells that receive testosterone only, and (b) wells that receive testosterone plus 2 μM of dexamethasone to provide maximum induction of aromatase. Plates are incubated at 37° C. overnight (15 to 18 hours), and supernatants are harvested at the end of incubation. Estradiol in the supernatant is measured using ELISA kits for estradiol (made by ALPCO, obtained from American Laboratory Products Cat. No. 020-DR-2693) according to the manufacture's instruction. The amount of estradiol is inversely proportional to the ELISA signals in each well. The extent of aromatase induction by test compounds is expressed as a relative percentage to dexamethasone. EC50 values of test compounds are derived by non-linear curve fitting.
Human foreskin fibroblast cells produce IL-6 in response to stimulation by pro-inflammatory cytokine IL-1.
Human foreskin fibroblast cells (ATCC Cat. No. CRL-2429) are plated on 96 well plates at 5,000 cells per well the day before use, in Iscove's Modified Dulbecco's Media (GibcoBRL Life Technologies Cat. No. 12440-053) supplemented with 10% charcoal filtered FBS (Clonetech Cat. No. SH30068) and Gentamycin (GibcoBRL Life Technologies Cat. No. 15710-064). On the next day, media in the wells is replaced with fresh media. Cells are treated with IL-1 (rhIL-1α, R&D Systems Cat. No. 200-LA) to a final concentration of 1 ng/mL, and with test compounds to final concentrations of 10^−5 M to 10^−8 M, in a total volume of 200 μL per well. Samples are done in duplicates. […] Positive control wells receive IL-1 only and represent maximum (or 100%) amount of IL-6 production. Plates are incubated at 37° C. overnight (15 to 18 hours), and supernatants are harvested at the end of incubation. IL-6 levels in the supernatants are determined by the ELISA kits for IL-6 (MedSystems Diagnostics GmbH, Vienna, Austria, Cat. No. BMS213TEN) according to manufacture's instructions. The extent of inhibition of IL-6 by test compounds is expressed in percentage relative to positive controls. IC50 values of test compounds are derived by non-linear curve fitting.
Evaluation of agonist or antagonist activity of compounds binding to the glucocorticoid receptor may be determined by any of the assays.
Testing of compounds for agonist or antagonist activity in induction of tyrosine aminotransferase (TAT) in rat hepatoma cells.
H4-II-E-C3 cells were incubated overnight in 96 well plates (20,000 cells/100 μL/well) in MEM medium containing 10% heat inactivated FBS and 1% nonessential amino acids. On the next day, cells were stimulated with the indicated concentrations of dexamethasone or test compound (dissolved in DMSO, final DMSO concentration 0.2%) for 18 hours. Control cells were treated with 0.2% DMSO. After 18 hours, the cells were lysed in a buffer containing 0.1% Triton X-100 and the TAT activity was measured in a photometric assay using tyrosine and alpha-ketoglutarate as substrates. […]

[1] = biological target: T1, human glucocorticoid receptor (GR) complex (Homo sapiens, UniProt P04150); assay: Glucocorticoid receptor competitive binding assay (fluorescence polarization); settings: competition with TAMRA-labeled dexamethasone, read-out: potent activity (IC50) in the GR binding assay
T1 construct: made in house; host or cells: insect expression system (baculovirus lysate)
T1 sequence (P04150 1-777): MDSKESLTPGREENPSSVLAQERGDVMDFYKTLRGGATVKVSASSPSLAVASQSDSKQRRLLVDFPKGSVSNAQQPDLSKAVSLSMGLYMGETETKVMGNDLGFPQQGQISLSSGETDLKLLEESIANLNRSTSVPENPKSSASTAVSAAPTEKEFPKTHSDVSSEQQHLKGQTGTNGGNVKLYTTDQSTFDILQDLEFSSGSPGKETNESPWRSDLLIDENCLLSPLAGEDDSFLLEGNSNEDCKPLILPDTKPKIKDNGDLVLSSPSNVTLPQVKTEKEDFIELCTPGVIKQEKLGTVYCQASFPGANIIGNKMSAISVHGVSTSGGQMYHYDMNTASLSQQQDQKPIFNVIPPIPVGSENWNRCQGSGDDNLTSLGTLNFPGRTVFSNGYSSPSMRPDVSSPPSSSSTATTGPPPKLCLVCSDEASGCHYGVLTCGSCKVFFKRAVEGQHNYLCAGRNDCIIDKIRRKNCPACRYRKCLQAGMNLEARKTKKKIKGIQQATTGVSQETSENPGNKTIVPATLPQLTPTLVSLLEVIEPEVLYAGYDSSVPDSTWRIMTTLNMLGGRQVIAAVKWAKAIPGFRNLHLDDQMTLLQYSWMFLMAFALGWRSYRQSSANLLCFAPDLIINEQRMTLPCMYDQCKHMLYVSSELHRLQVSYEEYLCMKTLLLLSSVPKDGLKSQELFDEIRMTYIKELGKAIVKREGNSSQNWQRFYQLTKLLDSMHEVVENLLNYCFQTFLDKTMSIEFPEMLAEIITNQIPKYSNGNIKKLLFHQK
Summary of the method: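 Human GR complex in baculovirus insect-cell lysate (1:170) competed against 15 nM TAMRA-dexamethasone stock for 1 h at room temperature. Buffer: TES/KCl/molybdate/EDTA/CHAPS/glycerol/DTT, pH 7.4, 1% DMSO final. FP read at 550/580 nm; IC50 from 4-parameter logistic fit.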

| SMILES | activity as an agonist of the glucocorticoid receptor function (glucocorticoid receptor) | IC50 [1] [nM] | melting point [°C] |
| --- | --- | --- | --- |
| Cc1cc(C)c(S(=O)(=O)NC(CNc2cccc3c(C#N)cccc23)C(F)(F)F)c(C)c1 (stereo not shown) [N-{1-[(5-Cyanonephthalen-1-ylamino)methyl]-2,2,2-trifluoroethyl}-2,4,6-trimethyl-benzenesulfonamide] | activity as an agonist | ≤ 100 |  |
| CC[C@@H](CNc1ccc(C)cc1C)NS(=O)(=O)c1c(N)cc(Cl)cc1Cl |  |  | 151 |
| CC[C@@H](CNc1cccc2ccccc12)NS(=O)(=O)c1c(N)cc(Cl)cc1Cl [2-Amino-4,6-dichloro-N-[(S)-1-(naphthalen-1-ylaminomethyl)propyl]benzenesulfonamide] | activity as an agonist | ≤ 100 |  |
| CC[C@@H](CNc1ccc(C)cc1C)NS(=O)(=O)c1c(N)cc(Cl)cc1Cl [2-Amino-4,6-dichloro-N—{(S)-1-[(2,4-dimethylphenylamino)methyl]propyl}benzenesulfonamide] | activity as an agonist | ≤ 100 |  |
| Cc1cc(C)c(S(=O)(=O)NC(CNc2cccc3ccccc23)C(F)(F)F)c(C)c1 (stereo not shown) [2,4,6-Trimethyl-N-[2,2,2-trifluoro-1-(naphthalen-1-ylaminomethyl)ethyl]benzenesulfonamide] | activity as an agonist | ≤ 100 |  |
| Cc1cc(C)c(S(=O)(=O)NC(CNc2ccc(Cl)c3ccccc23)C(F)(F)F)c(C)c1 (stereo not shown) [N-{1-[(4-Chloronaphthalen-1-ylamino)methyl]-2,2,2-trifluoroethyl}-2,4,6-trimethylbenzenesulfonamide] | activity as an agonist | ≤ 100 |  |
| Cc1cc(C)c(S(=O)(=O)NC(CSc2cccc3ccccc23)C(F)(F)F)c(C)c1 (stereo not shown) [2,4,6-Trimethyl-N-[2,2,2-trifluoro-1-(naphthalen-1-ylsulfanylmethyl)ethyl]benzenesulfonamide] | activity as an agonist | ≤ 100 |  |
